Data from ChEMBL document CHEMBL2074112 (Br J Cancer, 1996).

Biological target: ATP-dependent translocase ABCB1 (Homo sapiens, UniProt P08183)
Assay: TP_TRANSPORTER: increase in Rhodamine 123 intracellular accumulation (R123: 1.66 uM, Staurosporine: 80 uM) in MCF7/Adr cells
Assay type: functional, cell-based
Settings: nci/adr-res

Chain of ATP-dependent translocase ABCB1 (P08183 whole entry): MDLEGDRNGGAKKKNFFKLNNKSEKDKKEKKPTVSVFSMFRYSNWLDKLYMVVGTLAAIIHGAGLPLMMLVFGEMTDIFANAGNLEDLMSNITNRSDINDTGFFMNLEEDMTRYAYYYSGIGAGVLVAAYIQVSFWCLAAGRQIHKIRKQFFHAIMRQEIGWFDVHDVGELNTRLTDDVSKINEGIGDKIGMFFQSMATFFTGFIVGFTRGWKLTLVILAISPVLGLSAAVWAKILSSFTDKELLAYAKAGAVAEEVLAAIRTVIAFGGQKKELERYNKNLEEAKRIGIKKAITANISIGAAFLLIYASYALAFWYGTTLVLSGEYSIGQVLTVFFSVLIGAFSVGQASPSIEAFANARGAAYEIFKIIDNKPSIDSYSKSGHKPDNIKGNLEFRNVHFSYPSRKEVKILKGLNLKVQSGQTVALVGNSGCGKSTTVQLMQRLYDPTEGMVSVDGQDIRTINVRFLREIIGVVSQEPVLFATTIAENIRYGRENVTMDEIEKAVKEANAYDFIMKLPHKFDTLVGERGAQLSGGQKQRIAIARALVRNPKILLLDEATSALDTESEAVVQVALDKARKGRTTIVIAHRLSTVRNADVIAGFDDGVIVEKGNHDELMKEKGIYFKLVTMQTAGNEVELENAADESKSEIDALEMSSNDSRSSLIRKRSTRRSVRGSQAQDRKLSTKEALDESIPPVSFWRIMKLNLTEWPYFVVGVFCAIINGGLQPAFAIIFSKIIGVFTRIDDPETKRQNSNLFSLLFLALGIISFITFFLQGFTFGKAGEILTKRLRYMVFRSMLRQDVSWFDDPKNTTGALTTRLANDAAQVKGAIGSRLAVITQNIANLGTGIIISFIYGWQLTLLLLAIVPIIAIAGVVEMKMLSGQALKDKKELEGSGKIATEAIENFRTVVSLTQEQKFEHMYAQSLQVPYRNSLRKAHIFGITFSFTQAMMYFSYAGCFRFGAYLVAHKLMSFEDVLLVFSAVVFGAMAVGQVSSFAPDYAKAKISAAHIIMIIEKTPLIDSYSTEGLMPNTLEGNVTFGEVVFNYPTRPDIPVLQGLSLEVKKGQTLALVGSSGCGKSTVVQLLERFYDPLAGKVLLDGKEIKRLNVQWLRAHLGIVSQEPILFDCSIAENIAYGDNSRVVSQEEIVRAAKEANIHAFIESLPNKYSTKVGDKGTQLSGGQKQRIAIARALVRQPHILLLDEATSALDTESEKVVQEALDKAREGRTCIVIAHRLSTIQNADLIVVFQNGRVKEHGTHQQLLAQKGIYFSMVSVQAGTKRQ

## CN[C@@H]1C[C@H]2O[C@@](C)([C@@H]1OC)n1c3ccccc3c3c4c(c5c6ccccc6n2c5c31)C(=O)NC4 [STAUROSPORINE]
  Activity: 140%
